Legend:
Conditions in all cases: Homo sapiens, 48 h, read-out: Inhibitory effect (%) on tumor growth
Head and neck cancer = experiment: cells
Description: (§1) A plurality of types of human tumor cells were cultured in a 5% CO2 incubator at 37° C. and digested with trypsin when the density was 90% or above. The cells were resuspended in a culture solution and counted, and the cell concentration was adjusted to 2×10^4 cells/mL. The cell suspension was inoculated into a 96-well plate with 100 μL per well, and then cultured overnight in a 5% CO2 incubator at 37° C. After the cells completely adhered to the wall, each polypeptide according to the present invention was added as an administration group, and the culture solution without any drug was used as a blank control group. The solutions were diluted to 1 μmol/L by using a diluent. Each diluent was separately added to the 96-well plate with 100 per well, and the cells continued to be cultured in a 5% CO2 incubator for 48 hours at 37° C. Then 20 μL of MTT was added, and the cells continued to be cultured for 4 hours. The medium was sucked, and 100 μL of DMSO was added to each well for dissolution. Absorbance was measured by a microplate reader at a detection wavelength of 570 nm and a reference wavelength of 630 nm, and the growth inhibition rate was calculated. The formula was as follows: tumor growth inhibition rate (%)=(1−absorbance of the administration group/absorbance of the blank group)*100%. The experiment was repeated independently for 3 times.

Brain cancer = experiment: cells
Description: as §1

Esophageal cancer = experiment: cells
Description: as §1

Pancreatic cancer = experiment: cells
Description: as §1

Thyroid cancer = experiment: cells
Description: as §1

Liver cancer = experiment: cells
Description: as §1

Breast cancer = experiment: cells
Description: as §1

Gastric cancer = experiment: cells
Description: as §1

Kidney cancer = experiment: cells
Description: as §1

Colorectal cancer = experiment: cells
Description: as §1

Ovarian cancer = experiment: cells
Description: as §1

Cervical cancer = experiment: cells
Description: as §1

Prostate cancer = experiment: cells
Description: as §1

Melanoma = experiment: cells
Description: as §1

Hemangioma = experiment: cells
Description: as §1

Sarcoma = experiment: cells
Description: as §1

Lung cancer = experiment: cells
Description: as §1

Uterus cancer = experiment: tissue or blood
Description: as §1

Question: How did the inhibition at 1 µM (Head and neck cancer) turn out when `CC(=O)O[C@@]12CO[C@@H]1C[C@H](O)[C@@]1(C)C(=O)[C@H](O)C3=C(C)[C@@H](OC(=O)[C@H](O)[C@@H](NC(=O)OC(C)(C)C)c4ccccc4)C[C@@](O)([C@@H](OC(=O)c4ccccc4)[C@H]21)C3(C)C` [Docetaxel] was run?
Answer: 62.5 ± 2.12%

Question: And the inhibition at 1 µM (Brain cancer)?
Answer: 68.1 ± 10.3%

Question: What about the inhibition at 1 µM (Esophageal cancer) of the same compound?
Answer: 64.4 ± 8.06%

Question: And the inhibition at 1 µM (Pancreatic cancer)?
Answer: 76.7 ± 10.1%

Question: And the inhibition at 1 µM (Thyroid cancer)?
Answer: 73.2 ± 19.3%

Question: And the inhibition at 1 µM (Liver cancer)?
Answer: 74.2 ± 11.7%

Question: What about the inhibition at 1 µM (Breast cancer) of the same compound?
Answer: 65.1 ± 10.7%

Question: What about the inhibition at 1 µM (Gastric cancer) of the same compound?
Answer: 74.2 ± 6.38%

Question: And the inhibition at 1 µM (Kidney cancer)?
Answer: 75.5 ± 10.2%

Question: And the inhibition at 1 µM (Colorectal cancer)?
Answer: 53.5 ± 10.4%

Question: And the inhibition at 1 µM (Ovarian cancer)?
Answer: 62.8 ± 20.2%

Question: And the inhibition at 1 µM (Cervical cancer)?
Answer: 66.6 ± 11.3%

Question: What about the inhibition at 1 µM (Prostate cancer) of the same compound?
Answer: 78.4 ± 4.21%

Question: What about the inhibition at 1 µM (Melanoma) of the same compound?
Answer: 68.4 ± 6.23%

Question: What about the inhibition at 1 µM (Hemangioma) of the same compound?
Answer: 78.8 ± 6.16%

Question: What about the inhibition at 1 µM (Sarcoma) of the same compound?
Answer: 62.5 ± 8.75%

Question: And the inhibition at 1 µM (Lung cancer)?
Answer: 73.3 ± 7.03%

Question: And the inhibition at 1 µM (Uterus cancer)?
Answer: 57.2 ± 12.3%

From patent US20220332763A1, “FUSED POLYPEPTIDE AND USE THEREOF” (NANJING ANJI BIOLOGICAL TECHNOLOGY CO., LTD., priority 2019, published 2022)
